The values below come from paper PMC4669759 (Cell Death & Disease, 2015).

One experiment concerns the target BCL-2 (Homo sapiens, UniProt P10415). Description: TR-FRET binding affinity assay, BCL-2. The method, then: TR-FRET-binding affinity assays were performed for BCL-2, BCL-XL, and MCL-1 in 4.52 mM monobasic potassium phosphate, 15.48 mM dibasic potassium phosphate, 1 mM sodium EDTA, 0.05% Pluronic F-68 detergent, 50 mM sodium chloride, and 1 mM DTT (pH 7.5) as described previously for BCL-XL.[6] For MCL-1 assays, GST-tagged MCL-1 (1 nM) was mixed with 100 nM f-Bak, 1 nM Tb-labeled anti-GST antibody, and compound at room temperature (RT) for 60 min. Fluorescence was measured on an Envision plate reader (Perkin-Elmer, Waltham, MA, USA) using a 340/35 nm excitation filter and 520/525 (f-Bak) and 495/510 nm (Tb-labeled anti-GST antibody) emission filters.
On the technique in general: TR-FRET usually uses a lanthanide donor and a delayed reading to cut background.

The target in experiment [1] is T1, MCL-1–BIM complexes (Homo sapiens, UniProt Q07820).
T1 construct: endogenous in cells; host or cells: H929
T1 sequence (Q07820 whole entry, one chain of several): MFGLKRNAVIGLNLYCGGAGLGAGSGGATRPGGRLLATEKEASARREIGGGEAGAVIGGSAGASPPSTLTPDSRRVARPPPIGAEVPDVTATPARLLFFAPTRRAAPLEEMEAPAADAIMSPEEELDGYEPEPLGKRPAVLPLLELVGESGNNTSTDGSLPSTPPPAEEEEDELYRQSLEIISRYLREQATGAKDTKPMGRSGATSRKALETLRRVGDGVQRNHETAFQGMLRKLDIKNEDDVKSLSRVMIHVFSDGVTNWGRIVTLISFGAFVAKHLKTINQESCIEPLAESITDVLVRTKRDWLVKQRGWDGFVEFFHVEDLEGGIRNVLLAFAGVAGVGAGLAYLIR
The experiment in a line: MCL-1/BIM co-immunoprecipitation and immunoblot in H929 cells. In kind it is cell-based. The conditions noted are these: 10 μM, 4 h. The method, then: Figure 1 MCL-1 levels are elevated in cancer cells after treatment with MCL-1-binding small molecules. (a) H929 multiple myeloma cells were treated for 4 h with 10 μM A-1210477 before immunopreciptating MCL-1. […] A control H929 lysate was run in lane 1, and an immunoprecipitation with a non-specific antibody (Ig) was run in lane 2. The positions of molecular weight markers (specified in kiloDaltons) are indicated on the left. (b) HCC-1806 breast cancer cells were incubated with increasing concentrations of A-1210477 (0.1, 0.5, 1, 5, 10, 15, or 20 μM) or bortezomib (2, 10, or 50 nM) for 8 h before assessing MCL-1 and NOXA levels by immunoblotting. β-Actin was probed as a protein loading control. The lower graph depicts reverse transcriptase-PCR quantification of MCL1 mRNA from HCC-1806 cells treated for 8 h with similar concentrations of A-1210477. (c) HCC-1806 cells were incubated with increasing concentrations (0.1, 0.5, 1, 5, 10, and 20 μM) of A-954248, A-962653, or A-1248767 for 24 h before assessing MCL-1 and BCL-XL levels by immunoblotting. β-Actin was probed as a protein loading control
Antibodies for MCL-1-BIM co-immunoprecipitation studies were obtained from Thermo Fisher Scientific (Waltham, MA, USA; anti-MCL-1 clone RC13) and Abcam (Cambridge, MA, USA; anti-BIM clone Y36). […]
In general terms: In western blotting, separated proteins are transferred to a membrane and probed.

Experiment [2] deals with T1, MCL-1–BIM complexes. The experiment in a line: Co-immunoprecipitation–electrochemiluminescent ELISA of MCL-1–BIM complexes in H929 cells. In kind it is cell-based. The conditions noted are these: 4 h. The method, then:
(a) H929 cells were treated with increasing concentrations of A-1210477 for 4 h. […] All data represent the mean of triplicate experiments, with error bars indicating the S.D. (b) Quantitative measurement of protein–protein interactions using a luciferase-based mammalian two-hybrid assay. […] All data represent the means of triplicate experiments, with error bars indicating the S.Ds.
After compound treatments, cells were lysed in buffer containing 1% CHAPS, 10 mM HEPES, and 150 mM NaCl with protease inhibitor cocktail (Roche, Indianapolis, IN, USA). In all, 100 μg of cell lysate was added to each well of a Meso Scale Discovery (Rockville, MD, USA) 96-well plate precoated with biotinylated anti-MCL-1 antibody (clone RC13) from Thermo Fisher Scientific. MCL-1-BIM complexes were detected with rabbit anti-BIM antibody (clone Y36) from Abcam, followed by Sulfo-tagged anti-rabbit antibody (Meso Scale Discovery; cat no. R32AB-5) and Meso Scale Discovery reading buffer with surfactant (cat. no. R92TC-2) according to the manufacturer's recommendations. Each step was followed by washing three times with PBS-T (PBS+0.1% Tween-20).

The next experiment has as its system Bak-/- Bax-/- MEFs. Description: Cell viability, Bak-/- Bax-/- murine embryonic fibroblasts. In kind it is cell-based. The note with it: 48 h. As to the method: Supplementary Figure 4. […] Murine embryonic fibroblasts (MEFs) lacking Bak and Bax were treated with increasing concentrations of A-1155905, A-1208746, A-1210477, staurosporine or bortezomib for 48 h before assessing cell viability. Data represent the mean of triplicate experiments and error bars indicate the standard error of the mean.

For a further experiment, the system named is H2110 cells. The experiment in a line: Cell viability, H2110 cells. Format: cell-based, human. As to the method: Figure 5 A-1210477 kills MCL-1-dependent NSCLC cancer cell lines. NSCLC cell lines (a) H2110 or (c) H23 were transfected with a construct expressing the MCL1 CDS tagged with a Flag epitope or empty control vector. These cells were subsequently transfected with siRNAs targeting the MCL1 CDS, the MCL1 3′ UTRa or UTRb, or a scrambled control sequence. Cell viability was assessed 72 h later with MCL-1 and Flag immunoblots performed in parallel. (b) H2110 or (d) H23 cells were treated with increasing concentrations of A-1210477 for 72 h before assessing cell viability.
(§1) Adherent cell lines were seeded at 50 000 cells per well in 96-well plates and treated for 48 h with compounds diluted in half-log steps starting at 30 μM and ending at 0.001 μM. Multiple myeloma cell lines were seeded at 15 000–20 000 cells per well and treated similarly. Effects on proliferation and viability were determined using CellTiter-Glo reagent from Promega (Madison, WI, USA) according to the manufacturer's instructions. IC50 values were determined by non-linear regression analysis of the concentration response data.

The next experiment concerns BxPC-3 cells. The experiment in a line: Navitoclax / A-1210477 combination cell viability, BxPC-3 cells. In kind it is cell-based. The conditions noted are these: BxPC-3, 48 h. As to the method: Figure 6 A-1210477 synergizes with navitoclax to kill hematological and solid tumor cell lines. BxPC-3, EJ-1, H23, and OPM-2 cells were treated with increasing concentrations of navitoclax in the presence or absence of increasing concentrations of A-1210477 for 48 h before assessing cell viability. All data points represent the means of triplicate experiments, with error bars indicating the S.E.M. TEXT PRINTED IN THE PICTURE: A-1210477 + navitoclax: Bliss sum (BxPC-3): 716; Bliss sum (EJ-1): 464; Bliss sum (H23): 76; Bliss sum (OPM-2): 946 DOUBTS OF THE COPYIST ABOUT THIS PICTURE: The Bliss sums apply to the combination of A-1210477 and navitoclax. The picture prints the two names separately (legend heading and axis title), not as one joined label.
as §1

Structures are written as SMILES. pEC50, pIC50, pKi: −log10 of the molar value.

Chain of BCL-2 (P10415 whole entry): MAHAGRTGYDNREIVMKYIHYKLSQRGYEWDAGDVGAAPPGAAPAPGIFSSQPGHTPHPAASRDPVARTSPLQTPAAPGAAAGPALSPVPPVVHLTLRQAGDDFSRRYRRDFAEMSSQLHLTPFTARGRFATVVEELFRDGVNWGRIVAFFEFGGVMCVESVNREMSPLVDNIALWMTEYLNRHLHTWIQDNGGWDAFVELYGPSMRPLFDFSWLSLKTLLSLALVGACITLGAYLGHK

As usually defined, the pKi is −log10 of the Ki, conventionally taken in molar units. By pIC50 is commonly meant the IC50 on a negative log10 scale, so that one unit is a factor of ten. Lower therefore signals a high IC50. What is called pEC50 is the EC50 on a negative log10 scale, so that one unit is a factor of ten. A higher pEC50 goes with a small EC50. On to `Cc1nn(C)c(COc2ccc(N3CCN(S(=O)(=O)N(C)C)CC3)cc2)c1-c1cccc2c(CCCOc3cccc4ccccc34)c(C(=O)O)n(CCN3CCOCC3)c12` [A-1210477], for which the negative logarithm of the Ki (pKi) at BCL-2 was 6.88. Moreover, the “BIM co-immunoprecipitated with MCL-1 antibody” value on MCL-1–BIM complexes [1] was “reduce the amount of BIM co-immunoprecipitated”. In addition, the “IC50, reduction of BIM co-immunoprecipitated with MCL-1” value against MCL-1–BIM complexes [2] was “low-μM range”. Also, the “killing of Bak-/- Bax-/- MEFs” value in the experiment with Bak-/- Bax-/- MEFs is “do not Kill”. Besides, in the experiment with H2110 cells (H2110), the pIC50 was more than 5.00. Moreover, the negative logarithm of the EC50 (pEC50) in the experiment on H2110 cells (H2110, 72 h) was 5.28. In the experiment on BxPC-3 cells, the potentiation of navitoclax result is “substantially shifted the dose–response curve of navitoclax”.
